Reference: patent publication US20170050957A1, “4-AMINO-6-(HETEROCYCLIC)PICOLINATES AND 6-AMINO-2-(HETEROCYCLIC)PYRIMIDINE-4-CARBOXYLATES AND THEIR USE AS HERBICIDES” (Dow AgroSciences LLC, priority 2013, published 2017)
Like-named read-outs stand apart in the source and are kept apart here.

Assays:
[1] = test system: Key Grass and Sedge Weeds as well as Grass Crops; experiment: Post-emergent Test II herbicidal activity (Table 16); assay type: in vivo; settings: post-emergence, 336 h, 14 days after application; for pest or weed control at 35 g/ha: 35 g ai/ha; for pest or weed control at 70 g/ha: 70 g ai/ha; for pest or weed control at 140 g/ha: 140 g ai/ha
In short: (§1)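 Greenhouse-grown seedlings at first/second true leaf receive a track spray at 187 L/ha, using a highest rate plus two-fold serial dilutions down to 1/16×. Watering is by subirrigation to avoid wash-off. Percent injury (0-100) is judged by eye at 14 d against untreated plants.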

[2] = test system: Key Broadleaf Weed and Crop Species; experiment: Post-emergent Test II herbicidal activity (Table 15); assay type: in vivo; settings: post-emergence, 336 h, 14 d; for pest or weed control at 35 g/ha: 35 g ai/ha; for pest or weed control at 70 g/ha: 70 g ai/ha; for pest or weed control at 140 g/ha: 140 g ai/ha
In short: as §1

[3] = Cyperus esculentus, yellow nutsedge (Cyperus esculentus), read-out: Visual Growth Reduction (%) 14 Days After Application CYPES
[4] = Echinochloa crus-galli, barnyardgrass (Echinochloa crus-galli), read-out: Visual Growth Reduction (%) 14 Days After Application ECHCG
[5] = Oryza sativa, rice (Oryza sativa), read-out: Visual Growth Reduction (%) 14 Days After Application ORYSA
[6] = Setaria faberi, giant foxtail (Setaria faberi), read-out: Visual Growth Reduction (%) 14 Days After Application SETFA
[7] = Triticum aestivum, wheat, spring (Triticum aestivum), read-out: Visual Growth Reduction (%) 14 Days After Application TRZAS
[8] = Zea mays, maize, corn (Zea mays), read-out: Visual Growth Reduction (%) 14 Days After Application ZEAMX
[9] = Abutilon theophrasti, velvetleaf (Abutilon theophrasti), read-out: Visual Growth Reduction (%) 14 Days After Application, ABUTH
[10] = Amaranthus retroflexus, redroot pigweed (Amaranthus retroflexus), read-out: Visual Growth Reduction (%) 14 Days After Application, AMARE
[11] = Brassica napus, oilseed rape, canola (Brassica napus), read-out: Visual Growth Reduction (%) 14 Days After Application, BRSNN
[12] = Chenopodium album, lambsquarters (Chenopodium album), read-out: Visual Growth Reduction (%) 14 Days After Application, CHEAL
[13] = Euphorbia heterophylla, wild poinsettia (Euphorbia heterophylla), read-out: Visual Growth Reduction (%) 14 Days After Application, EPHHL
[14] = Helianthus annuus, sunflower (Helianthus annuus), read-out: Visual Growth Reduction (%) 14 Days After Application, HELAN

COc1c(N)nc(-c2ccc3ccsc3c2)nc1C(=O)O [Compound 3.21]
melting point: 134 to 136 °C
pest or weed control at 35 g/ha [1, 3]: 0 to 29%
pest or weed control at 70 g/ha [1, 3]: 0 to 29%
pest or weed control at 140 g/ha [1, 3]: 0 to 29%
pest or weed control at 35 g/ha [1, 4]: 75 to 84%
pest or weed control at 70 g/ha [1, 4]: 85 to 94%
pest or weed control at 140 g/ha [1, 4]: 85 to 94%
pest or weed control at 35 g/ha [1, 5]: 0 to 29%
pest or weed control at 70 g/ha [1, 5]: 30 to 44%
pest or weed control at 140 g/ha [1, 5]: 30 to 44%
pest or weed control at 35 g/ha [1, 6]: 0 to 29%
pest or weed control at 70 g/ha [1, 6]: 30 to 44%
pest or weed control at 140 g/ha [1, 6]: 60 to 74%
pest or weed control at 35 g/ha [1, 7]: 30 to 44%
pest or weed control at 70 g/ha [1, 7]: 30 to 44%
pest or weed control at 140 g/ha [1, 7]: 45 to 59%
pest or weed control at 35 g/ha [1, 8]: 30 to 44%
pest or weed control at 70 g/ha [1, 8]: 60 to 74%
pest or weed control at 140 g/ha [1, 8]: 75 to 84%
pest or weed control at 35 g/ha [2, 9]: 0 to 29%
pest or weed control at 70 g/ha [2, 9]: 30 to 44%
pest or weed control at 140 g/ha [2, 9]: 45 to 59%
pest or weed control at 35 g/ha [2, 10]: 95 to 100%
pest or weed control at 70 g/ha [2, 10]: 95 to 100%
pest or weed control at 140 g/ha [2, 10]: 95 to 100%
pest or weed control at 35 g/ha [2, 11]: 75 to 84%
pest or weed control at 70 g/ha [2, 11]: 85 to 94%
pest or weed control at 140 g/ha [2, 11]: 95 to 100%
pest or weed control at 35 g/ha [2, 12]: 85 to 94%
pest or weed control at 70 g/ha [2, 12]: 85 to 94%
pest or weed control at 140 g/ha [2, 12]: 95 to 100%
pest or weed control at 35 g/ha [2, 13]: 75 to 84%
pest or weed control at 70 g/ha [2, 13]: 85 to 94%
pest or weed control at 140 g/ha [2, 13]: 95 to 100%
pest or weed control at 35 g/ha [2, 14]: 60 to 74%
pest or weed control at 70 g/ha [2, 14]: 60 to 74%
pest or weed control at 140 g/ha [2, 14]: 75 to 84%

COC(=O)c1nc(-c2cc3sccc3cc2F)nc(N)c1OC [Compound 3.22]
melting point: 168 °C
pest or weed control at 35 g/ha [1, 3]: 0 to 29%
pest or weed control at 70 g/ha [1, 3]: 0 to 29%
pest or weed control at 140 g/ha [1, 3]: 0 to 29%
pest or weed control at 35 g/ha [1, 4]: 0 to 29%
pest or weed control at 70 g/ha [1, 4]: 0 to 29%
pest or weed control at 140 g/ha [1, 4]: 0 to 29%
pest or weed control at 35 g/ha [1, 5]: 0 to 29%
pest or weed control at 70 g/ha [1, 5]: 0 to 29%
pest or weed control at 140 g/ha [1, 5]: 0 to 29%
pest or weed control at 35 g/ha [1, 6]: 0 to 29%
pest or weed control at 70 g/ha [1, 6]: 0 to 29%
pest or weed control at 140 g/ha [1, 6]: 0 to 29%
pest or weed control at 35 g/ha [1, 7]: 0 to 29%
pest or weed control at 70 g/ha [1, 7]: 0 to 29%
pest or weed control at 140 g/ha [1, 7]: 0 to 29%
pest or weed control at 35 g/ha [1, 8]: 0 to 29%
pest or weed control at 70 g/ha [1, 8]: 0 to 29%
pest or weed control at 140 g/ha [1, 8]: 0 to 29%
pest or weed control at 35 g/ha [2, 9]: 0 to 29%
pest or weed control at 70 g/ha [2, 9]: 0 to 29%
pest or weed control at 140 g/ha [2, 9]: 0 to 29%
pest or weed control at 35 g/ha [2, 10]: 60 to 74%
pest or weed control at 70 g/ha [2, 10]: 95 to 100%
pest or weed control at 140 g/ha [2, 10]: 95 to 100%
pest or weed control at 35 g/ha [2, 11]: 0 to 29%
pest or weed control at 70 g/ha [2, 11]: 30 to 44%
pest or weed control at 140 g/ha [2, 11]: 60 to 74%
pest or weed control at 35 g/ha [2, 12]: 60 to 74%
pest or weed control at 70 g/ha [2, 12]: 75 to 84%
pest or weed control at 140 g/ha [2, 12]: 85 to 94%
pest or weed control at 35 g/ha [2, 13]: 95 to 100%
pest or weed control at 70 g/ha [2, 13]: 95 to 100%
pest or weed control at 140 g/ha [2, 13]: 95 to 100%
pest or weed control at 35 g/ha [2, 14]: 75 to 84%
pest or weed control at 70 g/ha [2, 14]: 85 to 94%
pest or weed control at 140 g/ha [2, 14]: 85 to 94%

COC(=O)c1nc(-c2cccc3sccc23)c(F)c(N)c1Cl [Compound 3.23]
melting point: 219 to 221 °C
pest or weed control at 35 g/ha [1, 3]: 0 to 29%
pest or weed control at 70 g/ha [1, 3]: 0 to 29%
pest or weed control at 140 g/ha [1, 3]: 0 to 29%
pest or weed control at 35 g/ha [1, 4]: 0 to 29%
pest or weed control at 70 g/ha [1, 4]: 0 to 29%
pest or weed control at 140 g/ha [1, 4]: 0 to 29%
pest or weed control at 35 g/ha [1, 5]: 0 to 29%
pest or weed control at 70 g/ha [1, 5]: 0 to 29%
pest or weed control at 140 g/ha [1, 5]: 0 to 29%
pest or weed control at 35 g/ha [1, 6]: 0 to 29%
pest or weed control at 70 g/ha [1, 6]: 0 to 29%
pest or weed control at 140 g/ha [1, 6]: 0 to 29%
pest or weed control at 35 g/ha [1, 7]: 0 to 29%
pest or weed control at 70 g/ha [1, 7]: 0 to 29%
pest or weed control at 140 g/ha [1, 7]: 0 to 29%
pest or weed control at 35 g/ha [1, 8]: 0 to 29%
pest or weed control at 70 g/ha [1, 8]: 0 to 29%
pest or weed control at 140 g/ha [1, 8]: 0 to 29%
pest or weed control at 35 g/ha [2, 9]: 0 to 29%
pest or weed control at 70 g/ha [2, 9]: 0 to 29%
pest or weed control at 140 g/ha [2, 9]: 0 to 29%
pest or weed control at 35 g/ha [2, 10]: 0 to 29%
pest or weed control at 70 g/ha [2, 10]: 0 to 29%
pest or weed control at 140 g/ha [2, 10]: 0 to 29%
pest or weed control at 35 g/ha [2, 11]: 0 to 29%
pest or weed control at 70 g/ha [2, 11]: 0 to 29%
pest or weed control at 140 g/ha [2, 11]: 0 to 29%
pest or weed control at 35 g/ha [2, 12]: 0 to 29%
pest or weed control at 70 g/ha [2, 12]: 45 to 59%
pest or weed control at 140 g/ha [2, 12]: 85 to 94%
pest or weed control at 35 g/ha [2, 13]: 0 to 29%
pest or weed control at 70 g/ha [2, 13]: 0 to 29%
pest or weed control at 140 g/ha [2, 13]: 0 to 29%
pest or weed control at 35 g/ha [2, 14]: 0 to 29%
pest or weed control at 70 g/ha [2, 14]: 0 to 29%
pest or weed control at 140 g/ha [2, 14]: 0 to 29%
